Measurements as given in patent US20030187058A1, “Combination of lipoic acids and conjugated acids for treating diabetic disorders” (priority 2000, published 2003).

What was measured:
diabetic polyneuropathy = settings: 3-week intravenous and subsequent 6-months oral treatment, cited from earlier work
diabetic neuropathy = settings: intravenous 600 mg a day for 3 weeks; cited from earlier work
[1] = test system: patients with type II diabetes; settings: single parenteral dose of 1,000 mg; cited from earlier work
NIDDM patients = settings: 800 mg each day for 4 months; cited from earlier work
skeletal muscle = experiment: Insulin-induced skeletal muscle glucose transport activity in treated obese Zucker rats (summary statement); type: in vivo, obese Zucker rat (fa/fa); settings: each substance alone
Excerpt: (§1) The obese Zucker rat (fa/fa) is an animal model of insulin resistance, glucose intolerance, hyperinsulinaemia and dyslipidaemia. This model was used to determine the effect of four different forms of diet (control, R-lipoic acid (R—LA), conjugated linoleic acid (CLA) and a combination of conjugated linoleic acid and R-lipoic acid) on insulin-induced skeletal muscle glucose transport activity and on glucose tolerance.
The test animals were maintained on regular chow and water ad libitum. At the age of 9-10 weeks, the animals were assigned to either a vehicle-treated control group or to intervention groups receiving either R-lipoic acid (10 mg/kg bodyweight), conjugated linoleic acid (c9,t11:t10,c12; 50:50; 0.3 g/kg bodyweight) or both. R-lipoic acid was administered by intraperitoneal injection; conjugated linoleic acid by gavage. The treatment period lasted for 18-20 days.
24 hours after the final treatment and having been restricted to 4 g chow during the previous 13 hours, animals were deeply anaesthetised with pentobarbital sodium (50 mg/kg ip). Right soleus muscles and both right and left epitrochlearis muscles were surgically removed and prepared for incubation in vitro. […] Glucose transport activity was then determined as described by Hendriksen and Halseth (J Appl Physiol 1994; 76: 1862-1867).

epitrochlearis muscle = experiment: 2-Deoxyglucose uptake (glucose transport activity) in epitrochlearis muscle removed from treated obese Zucker rats, incubated in vitro; type: in vivo, obese Zucker rat (fa/fa); settings: obese Zucker rats treated 18-20 days; for 2-Deoxyglucose level, Increase: insulin-stimulated minus basal; for 2-Deoxyglucose level, + Insulin [5 mU/ml] / 2-Deoxyglucose level, Basal: R-LA 10 mg/kg ip, CLA 0.3 mg/kg (table) by gavage; for 2-Deoxyglucose level, + Insulin [5 mU/ml]: insulin 5 mU/ml in vitro; for 2-Deoxyglucose level, Basal: no insulin
Excerpt: as §1
(§2) The test animals were maintained on regular chow and water ad libitum. […] R-lipoic acid was administered by intraperitoneal injection; conjugated linoleic acid by gavage. The treatment period lasted for 18-20 days.
(§3) 24 hours after the final treatment and having been restricted to 4 g chow during the previous 13 hours, animals were deeply anaesthetised with pentobarbital sodium (50 mg/kg ip). Right soleus muscles and both right and left epitrochlearis muscles were surgically removed and prepared for incubation in vitro. Muscles were prepared as described by Peth J A et al. (Am J Physiol Regulatory Integrative Comp Physiol 2000; 278: R453-R459). Glucose transport activity was then determined as described by Hendriksen and Halseth (J Appl Physiol 1994; 76: 1862-1867).

soleus muscle = experiment: 2-Deoxyglucose uptake (glucose transport activity) in soleus muscle removed from treated obese Zucker rats, incubated in vitro; type: in vivo, obese Zucker rat (fa/fa); settings: obese Zucker rats treated 18-20 days; for 2-Deoxyglucose level, Increase: insulin-stimulated minus basal; for 2-Deoxyglucose level, + Insulin [5 mU/ml] / 2-Deoxyglucose level, Basal: R-LA 10 mg/kg ip, CLA 0.3 mg/kg (table) by gavage; for 2-Deoxyglucose level, + Insulin [5 mU/ml]: insulin 5 mU/ml in vitro; for 2-Deoxyglucose level, Basal: no insulin
Excerpt: as §1, §2, §3

Molecule	neuropathic deficits (diabetic polyneuropathy)	neuropathic symptoms (diabetic polyneuropathy; versus placebo)	symptomatic complaints (diabetic neuropathy)	glucose utilization [1]	cardiovascular autonomic symptoms (NIDDM patients)	skeletal muscle glucose transport activity following stimulation by insulin, beyond the increase in the vehicle-treated control group (skeletal muscle)	2-Deoxyglucose level, Increase (epitrochlearis muscle)	2-Deoxyglucose level, + Insulin [5 mU/ml] (epitrochlearis muscle)	2-Deoxyglucose level, Basal (epitrochlearis muscle)	2-Deoxyglucose level, Increase (soleus muscle)	2-Deoxyglucose level, + Insulin [5 mU/ml] (soleus muscle)	2-Deoxyglucose level, Basal (soleus muscle)
O=C(O)CCCCC1CCSS1 (stereo not shown) [lipoic acid, 5-(1,2-dithiolan-3-yl)valeric acid]	appeared to have a beneficial effect	no effect on neuropathic symptoms distinguishable from placebo	decreased	distinct improvement	no significant change							
conjugated linoleic acid [CLA]						Neither R-lipoic acid nor conjugated linoleic acid alone increased	123 +/− 13 pmol/mg muscle	248 +/− 14 pmol/mg muscle	126 +/− 4 pmol/mg muscle	261 +/− 13 pmol/mg muscle	492 +/− 9 pmol/mg muscle	231 +/− 6 pmol/mg muscle
O=C(O)CCCC[C@@H]1CCSS1 [R-LA, (R)-5-(1,2-dithiolan-3-yl)-valeric acid]						Neither R-lipoic acid nor conjugated linoleic acid alone increased	102 +/− 11 pmol/mg muscle	225 +/− 8 pmol/mg muscle	123 +/− 3 pmol/mg muscle	258 +/− 16 pmol/mg muscle	481 +/− 19 pmol/mg muscle	224 +/− 7 pmol/mg muscle
